Values joined by “and” are separate entries in the source; they are usually repeats but may differ in a detail not shown here. Equal values may be shown once.
What was measured:
elastase (LasB) [1] = biological target: T1, elastase (LasB) (Pseudomonas aeruginosa, UniProt Q02RJ6); experiment: In situ inhibition of elastolytic activity (Elastin-Congo Red) with life cultures of P. aeruginosa PA14; type: cell-based
T1 construct: 1.4 mL of the culture was centrifuged and the supernatant filtered through a sterile filter; endogenous in cells; host or cells: P. aeruginosa PA14 culture (supernatant)
Procedure: Example 17: In Situ Inhibition of Elastase (LasB) with Compound 6
The in situ efficacy of Compound 6 was investigated by measuring the concentration dependent inhibition of elastolytic activity with life cultures of P. aeruginosa. The elastase assay was performed according to Calfee et al. (M. W. Calfee, J. P. Coleman, E. C. Pesci, Proceedings of the National Academy of Sciences of the United States of America 2001, 98, 11633-11637.) 10 μL of an overnight culture of PA14 was added to 3 mL of PTSB medium together with 15 μL of Compound 6 dissolved in DMSO at different stock concentrations. The culture was incubated for 24 h at 37° C. and 200 rpm. 1.4 mL of the culture was centrifuged and the supernatant filtered through a sterile filter. Thereafter, 0.5 mL ECR-buffer (0.1 M Tris HCl, 1 mM CaCl2, pH=7.2) together with 10 mg Elastin-Congo Red was added to 0.5 ml of the sterile flow-through and the mixture incubated for 3 h at 37° C. and 1600 rpm. After the incubation, 0.1 mL Na2EDTA (0.12 M) was added to quench the enzymatic reaction. After mixing, the solution was centrifuged (10 min at 6000 rpm) and 0.2 mL of the supernatant measured at 495 nm in a 96 well plate. It was observed that Compound 6 is an efficient inhibitor of elastolytic activity in situ resulting in sigmoidal inhibition behaviour with an IC50 of 40 μM (cf. FIG. 9).

Candida albicans = experiment: Minimum inhibitory concentration (MIC), 96-well plates, serial dilutions in LB medium; type: cell-based; conditions: C. albicans, LB medium, read-out: Minimum inhibitory concentration (MIC)
Source text: (§1) Example 12: Determination of the Minimum Inhibitory Concentration (MIC) with Non-Pathogenic E. coli and B. subtilis and/or Pathogenic Strains of S. aureus Including Three MRSA Strains (USA 300, Mu50 and DSM18827) as Well as the Pathogenic Fungus Candida albicans
(§2) Minimum inhibitory concentrations (MIC) for compounds 1 to 11 with non-pathogenic E. coli and B. subtilis and/or pathogenic strains of S. aureus including three MRSA strains (USA 300, Mu50 and DSM18827) as well as the pathogenic fungus Candida albicans were determined in 96-well plates with serial dilutions in LB medium.

[2] = system: S. aureus DSM18827 (MRSA); experiment: as above; type: cell-based; conditions: Staphylococcus aureus, DSM 11827 / DSM 18827 / MRSA; S. aureus DSM18827 (also printed DSM11827), MRSA, LB medium; read-out: Minimum inhibitory concentration (MIC)
Source text: as §1, §2

S. aureus NCTC 8325 = experiment: as above; type: cell-based; conditions: Staphylococcus aureus, NCTC8325; S. aureus NCTC 8325, LB medium; read-out: Minimum inhibitory concentration (MIC)
Source text: as §1, §2

S. aureus Mu50 (MRSA) = experiment: as above; type: cell-based; conditions: Staphylococcus aureus; S. aureus Mu50 (MRSA), LB medium; read-out: Minimum inhibitory concentration (MIC)
Source text: as §1, §2

B. subtilis = experiment: as above; type: cell-based; conditions: Bacillus subtilis; B. subtilis, LB medium; read-out: Minimum inhibitory concentration (MIC)
Source text: as §1, §2

elastase (LasB) [3] = biological target: elastase (LasB) (Pseudomonas aeruginosa, UniProt P14756); experiment: In vitro elastase assay with fluorogenic substrate Abz-peptide-Nba; type: biochemical, P. aeruginosa
Procedure: Example 16: In Vitro Inhibition of Elastase (LasB) with Compounds 6, 7, and 12
An in-vitro elastase assay was performed according to Cathcart et al. (G. R. Cathcart, B. F. Gilmore, B. Greer, P. Harriott, B. Walker, Bioorganic & medicinal chemistry letters 2009, 19, 6230-6232). For a typical in vitro elastase assay 82 μL buffer (0.05 M TRIS HCl, 2.5 mM CaCl2, pH=7.2) and 5 μL of compound 6 solved in DMSO were added in a 96 well plate. 10 μL of 3 μg/mL elastase (solved in the same Tris/CaCl2 buffer) were added and mixed with the compound. After incubation for 10 min at room temperature, 3 μL fluorogenic substrate Abz-peptide-Nba (2-aminobenzoyl-Ala-Gly-Leu-Ala-4-nitrobenzylamide) in DMF were added and the fluorescence measured for 90 min in one minute steps (excitation at 330 nm, emission at 460 nm). The slope of the resulting graph was used to calculate the enzymatic activity.

S. aureus USA 300 (MRSA) = experiment: Minimum inhibitory concentration (MIC), 96-well plates, serial dilutions in LB medium; type: cell-based; conditions: Staphylococcus aureus; S. aureus USA 300 (MRSA), LB medium; read-out: Minimum inhibitory concentration (MIC)
Source text: as §1, §2
Example 21: Determination of the Minimum Inhibitory Concentration (MIC) for the Compounds Represented by the Formulas (14) and (16) with the Pathogenic USA 300 (MRSA) Strain of S. aureus
Minimum inhibitory concentrations (MIC) for the compounds represented by the Formulas (14) and (16) with the pathogenic MRSA strains of S. aureus USA 300 were determined in 96-well plates with serial dilutions in LB medium.

Sequence of elastase (LasB) (Pseudomonas aeruginosa, UniProt P14756) (P14756 198-498): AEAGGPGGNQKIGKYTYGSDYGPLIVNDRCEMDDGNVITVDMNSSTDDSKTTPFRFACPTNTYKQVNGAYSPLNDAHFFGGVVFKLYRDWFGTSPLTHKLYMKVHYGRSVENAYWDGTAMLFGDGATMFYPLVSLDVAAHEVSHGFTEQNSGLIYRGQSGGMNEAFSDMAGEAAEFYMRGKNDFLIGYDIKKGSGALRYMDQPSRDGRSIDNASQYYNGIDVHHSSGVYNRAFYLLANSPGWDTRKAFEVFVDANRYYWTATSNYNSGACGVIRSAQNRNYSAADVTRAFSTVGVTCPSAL
T1 sequence (Q02RJ6 198-498): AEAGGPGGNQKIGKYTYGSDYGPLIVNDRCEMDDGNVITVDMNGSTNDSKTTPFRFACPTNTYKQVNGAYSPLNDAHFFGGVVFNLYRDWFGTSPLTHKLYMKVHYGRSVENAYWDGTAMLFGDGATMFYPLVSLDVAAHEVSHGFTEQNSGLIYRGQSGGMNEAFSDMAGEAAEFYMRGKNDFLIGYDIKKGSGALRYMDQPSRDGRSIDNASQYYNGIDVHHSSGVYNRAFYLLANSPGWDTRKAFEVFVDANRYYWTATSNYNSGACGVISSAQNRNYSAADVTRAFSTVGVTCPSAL

CCCCCCCc1[nH]c2ccccc2c(=S)c1O [Compound 6, 2-heptyl-3-hydroxyquinoline-4(1H)-thione]
IC50 (elastase (LasB) [1]): 40 µM
MIC (Candida albicans): 100 µM and 27.5 µg/mL
MIC [2]: 150 µM and 41.3 µg/mL
MIC (S. aureus NCTC 8325): 100 µM and 27.5 µg/mL
MIC (S. aureus Mu50 (MRSA)): 150 µM and 41.3 µg/mL
MIC (B. subtilis): 125 µM and 34.4 µg/mL
IC50 (elastase (LasB) [3]): 4 µM
MIC (S. aureus USA 300 (MRSA)): 150 µM and 41.3 µg/mL

Source: patent US10961196B2, “Compounds for use as an anti-bacterial or anti-fungal agent and as a zinc sensor” (UNIVERSITÄT KONSTANZ, priority 2016, dated 2021)
